{"source": "patent US20250295648A1", "about": "(priority 2024, published 2025)", "key": {"[1]": {"system": "overall PD symptoms in PD patients with LID", "experiment": "Clinical Global Impression of Change (CGI-C)", "format": "in vivo, human", "description": "The CGI-C is a clinician-oriented scale that assesses the total improvement in the patient's condition relative to the clinical global impression of severity (CGI-S) scale conducted at baseline. The CGI-C rates the patient's condition from 0 to 7, with a rating of 0 indicating “no assessment”, a rating of 1 indicating “very much better”, and a rating of 7 indicating “very much worse”."}, "PD patients with LID [2]": {"system": "PD patients with LID", "experiment": "PD Home Dyskinesia eDiary (good ON time)", "format": "in vivo, human", "description": "A PD Home Dyskinesia Diary (electronic) would be completed by the patients and/or caregiver with concordance in ON time with dyskinesia between study staff and patient. The diary is integrated in the Kinesia 360 wearable dyskinesia assessment system and is based on the PD Home Diary developed by Hauser (Hauser […]. Parkinson's Disease Home Diary: Further Validation and Implications for Clinical Trials. Mov. Discord. 19 (12), 2004). The diary would be used to score 5 different conditions in 30-minute time intervals during 2×24 hours prior to Visit 2, Visit 6 and Visit 7: • ASLEEP; • OFF; • ON (i.e., adequate control of PD symptoms) without dyskinesia; • ON with non-troublesome dyskinesia; • ON with troublesome dyskinesia."}, "PD patients with LID [3]": {"system": "PD patients with LID", "experiment": "Parkinson's Disease Questionnaire (PDQ39)", "format": "in vivo, human", "settings": "for PDQ39, mean change from baseline: per-protocol set", "description": "The PDQ39-item patient reported outcome of health status and quality of life and is the most frequently used disease-specific health status measure for PD. The questionnaire assesses how often people affected by PD experience difficulties across 8 dimensions of daily living. The standard PDQ39 assesses quality of life over the previous month. In this study the initial time period assessed at the Baseline Visit would be the previous month, with subsequent assessments for the intervening period since the last clinic visit (about 3 weeks). The 8 quality of life dimensions covered in the questionnaire are: • gg. Mobility (10 items #1-10) • hh. ADL (6 items #11-16) • ii. Emotional Well Being (6 items #17-22) • jj. Stigma (4 items #23-26) • kk. Social Support (3 items #27-29) • ll. Cognition (4 items #30-33) • mm. Communications (3 items #34-36) • nn. Bodily Discomfort (3 items #37-39) Individual items are rated by the patient on a scale of […]. Dimension scores are calculated on a scale of 0 to 100. The total score and individual dimension scores would be assessed for change from baseline."}, "PD patients with LID [4]": {"system": "PD patients with LID", "experiment": "Hospital Anxiety Depression Scale (HADS)", "format": "in vivo, human", "description": "The HADS is used to determine the levels of anxiety and depression that a person is experiencing. The questionnaire consists of 7 items related to anxiety and 7 related to depression. Each item on the questionnaires is scored from 0-3, which means that a person can score between 0 and 21 for either anxiety or depression."}, "[5]": {"settings": "both, human, in vivo", "description": "Based on the befiradol Cmax values observed in healthy male volunteers reported in WO 2016/005527, the sustained release compositions disclosed above in Tables 26-28 would be expected to provide Cmax values not less than those shown in Table 29 after a single oral administration to patients with Parkinson's disease. […] Therefore, the Cmax values in Table 29 for SR1-SR9 may be higher (e.g., by 10% or 20%) when administered to patients with Parkinson's disease since young adults rarely experience Parkinson's disease, which usually develops around age 60 or older."}, "5-HT1A receptors": {"target": "T1, 5-HT1A receptors (Homo sapiens, UniProt P08908)", "T1 sequence (P08908 1-422)": "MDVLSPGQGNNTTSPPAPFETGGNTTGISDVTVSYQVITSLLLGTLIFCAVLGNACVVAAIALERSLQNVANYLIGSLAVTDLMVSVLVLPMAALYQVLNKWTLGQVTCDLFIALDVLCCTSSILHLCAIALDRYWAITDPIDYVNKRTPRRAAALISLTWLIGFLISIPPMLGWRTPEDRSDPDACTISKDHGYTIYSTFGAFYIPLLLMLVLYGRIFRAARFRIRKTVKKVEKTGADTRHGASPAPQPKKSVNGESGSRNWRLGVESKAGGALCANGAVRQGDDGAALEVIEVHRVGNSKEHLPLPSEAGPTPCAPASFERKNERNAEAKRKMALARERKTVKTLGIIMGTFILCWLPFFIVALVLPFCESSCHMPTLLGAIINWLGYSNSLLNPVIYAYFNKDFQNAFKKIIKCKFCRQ", "settings": "cited from earlier work"}, "[6]": {"settings": "per-protocol set (n = 15), Baseline"}, "[7]": {"settings": "per-protocol set, Δ D 28 (end of up-titration)"}}}
{"smiles": "Cc1ccc(CNCC2(F)CCN(C(=O)c3ccc(F)c(Cl)c3)CC2)nc1", "note": "[NLX-112, (3-chloro-4-fluoro-phenyl)-[4-fluoro-4-{[(5-methyl-pyridin-2-ylmethyl)-amino]-methyl}piperidin-1-yl]methanone]", "values": [{"measurement": "CGI-C: proportion of patients minimally, much or very much improved", "setting": "[1]; Day 28", "result": 33, "unit": "%"}, {"measurement": "CGI-C: proportion of patients minimally, much or very much improved", "setting": "[1]; Day 42", "result": 53, "unit": "%"}, {"measurement": "CGI-C Minimally improved, number of patients", "setting": "[1]; Stable Dosing (d 42), n = 15", "result": 3}, {"measurement": "CGI-C Minimally improved, proportion of patients", "setting": "[1]; Stable Dosing (d 42), n = 15", "result": "(20%)"}, {"measurement": "CGI-C Minimally worse, number of patients", "setting": "[1]; Stable Dosing (d 42), n = 15", "result": 1}, {"measurement": "CGI-C Minimally worse, proportion of patients", "setting": "[1]; Stable Dosing (d 42), n = 15", "result": "(6.7%)"}, {"measurement": "CGI-C Much improved, number of patients", "setting": "[1]; Stable Dosing (d 42), n = 15", "result": 4}, {"measurement": "CGI-C Much improved, proportion of patients", "setting": "[1]; Stable Dosing (d 42), n = 15", "result": "(27%)"}, {"measurement": "CGI-C No change, number of patients", "setting": "[1]; Stable Dosing (d 42), n = 15", "result": 6}, {"measurement": "CGI-C No change, proportion of patients", "setting": "[1]; Stable Dosing (d 42), n = 15", "result": "(40%)"}, {"measurement": "CGI-C Total Improved, number of patients", "setting": "[1]; Stable Dosing (d 42), n = 15", "result": 8}, {"measurement": "CGI-C Total Improved, proportion of patients", "setting": "[1]; Stable Dosing (d 42), n = 15", "result": "(53%)"}, {"measurement": "CGI-C Very much improved, number of patients", "setting": "[1]; Stable Dosing (d 42), n = 15", "result": 1}, {"measurement": "CGI-C Very much improved, proportion of patients", "setting": "[1]; Stable Dosing (d 42), n = 15", "result": "(6.7%)"}, {"measurement": "CGI-C Minimally improved, number of patients", "setting": "[1]; Up-Titration (d 28), n = 15", "result": 3}, {"measurement": "CGI-C Minimally improved, proportion of patients", "setting": "[1]; Up-Titration (d 28), n = 15", "result": 20, "unit": "%"}, {"measurement": "CGI-C Minimally worse, number of patients", "setting": "[1]; Up-Titration (d 28), n = 15", "result": 1}, {"measurement": "CGI-C Minimally worse, proportion of patients", "setting": "[1]; Up-Titration (d 28), n = 15", "result": 6.7, "unit": "%"}, {"measurement": "CGI-C Much improved, number of patients", "setting": "[1]; Up-Titration (d 28), n = 15", "result": 2}, {"measurement": "CGI-C Much improved, proportion of patients", "setting": "[1]; Up-Titration (d 28), n = 15", "result": 13, "unit": "%"}, {"measurement": "CGI-C No change, number of patients", "setting": "[1]; Up-Titration (d 28), n = 15", "result": 9}, {"measurement": "CGI-C No change, proportion of patients", "setting": "[1]; Up-Titration (d 28), n = 15", "result": 60, "unit": "%"}, {"measurement": "CGI-C Total Improved, number of patients", "setting": "[1]; Up-Titration (d 28), n = 15", "result": 5}, {"measurement": "CGI-C Total Improved, proportion of patients", "setting": "[1]; Up-Titration (d 28), n = 15", "result": 33, "unit": "%"}, {"measurement": "CGI-C Very much improved, number of patients", "setting": "[1]; Up-Titration (d 28), n = 15", "result": 0}, {"measurement": "CGI-C overall PD symptoms, NLX-112 vs placebo", "setting": "[1]; days 28 and 42", "result": "no statistically significant differences"}, {"measurement": "good ON time, mean absolute change from baseline", "setting": "PD patients with LID [2]; Day 28, n=13, eDiary", "result": "+5.7%"}, {"measurement": "good ON time, significance of change from baseline within or between groups", "setting": "PD patients with LID [2]; Day 28 or Day 42", "result": "no statistically significant changes"}, {"measurement": "good ON time, mean absolute change from baseline", "setting": "PD patients with LID [2]; Day 42, n=12, eDiary", "result": "+5.2%"}, {"measurement": "quality of life (PDQ39 score)", "setting": "PD patients with LID [3]; Days 28 or 42", "result": "no consistent statistically significant effect"}, {"measurement": "PDQ39, mean", "setting": "PD patients with LID [3]; [6]", "result": 18.7}, {"measurement": "PDQ39, mean change from baseline", "setting": "PD patients with LID [3]; Δ D 28 (end of up-titration)", "result": "−1.5"}, {"measurement": "PDQ39, mean change from baseline", "setting": "PD patients with LID [3]; Δ D 42 (end of stable dosing)", "result": "−0.6"}, {"measurement": "anxiety and depression (HADS)", "setting": "PD patients with LID [4]; Days 28 or 42", "result": "no consistent statistically significant effect"}, {"measurement": "HADS (Anxiety), mean", "setting": "PD patients with LID [4]; [6]", "result": 4.5}, {"measurement": "HADS (Depression), mean", "setting": "PD patients with LID [4]; [6]", "result": 3.7}, {"measurement": "HADS (Anxiety), mean change from baseline", "setting": "PD patients with LID [4]; [7]", "result": "−0.5"}, {"measurement": "HADS (Depression), mean change from baseline", "setting": "PD patients with LID [4]; [7]", "result": "−0.4"}, {"measurement": "HADS (Depression), mean change from baseline", "setting": "PD patients with LID [4]; per-protocol set, Δ D 42 (end of stable dosing)", "result": "−0.6"}, {"measurement": "Cmax in female subjects, higher than males", "setting": "[5]", "result": "20%-40"}, {"measurement": "agonist efficacy at 5-HT1A receptors", "setting": "5-HT1A receptors", "result": "full agonist properties"}, {"measurement": "selectivity for 5-HT1A receptors", "setting": "5-HT1A receptors", "result": "exceptional selectivity"}]}
